# Measured values: paper PMC11882969 (Nature Communications, 2025)
# Several values for one entry are separate records, joined by “and”; a condition that tells them apart may be missing. Equal values may be shown once. Read-outs that look alike come from different tables or passages of the source.
# How the values were obtained:
# P-gp (human MDR1) = experiment: in vitro; conditions: dog, MDCK-MDR1, pH 7.4
# CB1R = experiment: Bimane fluorescence of labeled CB1R; format: biochemical, human; conditions: 10 μM ligand; apo 459 nm
# Protocol: A minimal cysteine version of CB1R was generated[85] where all the cysteine residues (except C256 and C264) were mutated to alanine. […] Excess label was removed using size exclusion chromatography on a Superdex 200 10/300 Increase column in 20 mM HEPES pH 7.5, 100 mM NaCl and 0.01% MNG/0.001% CHS. Bimane-labeled CB1R at […] was incubated with ligands (10 μM) for one hour at room temperature. Fluorescence data was collected at room temperature in a 150 μL cuvette with a FluorEssence v3.8 software on a Fluorolog instrument (Horiba) in photon-counting mode. Bimane fluorescence was measured by excitation at 370 nm with excitation and emission bandwidth passes of 4 nm. The emission spectra were recorded from 410 to 510 nm with 1 nm increment and 0.1 s integration time.
# [1] = target: T1, CB1R with G protein (Gi1-3, Go) (Homo sapiens, UniProt P21554); experiment: GTP turnover assay (GTPase-Glo); format: biochemical; conditions: replicates, sheet FigS3c
# T1 construct: a N-terminal FLAG tag and C-terminal histidine tag was added to human full-length CB1; FLAG (N); histidine tag (C); made in house; host or cells: CB1R: Spodoptera frugiperda Sf9; G proteins: Trichoplusia ni Hi5
# Protocol: Analysis of GTP turnover was performed by using a modified protocol of the GTPase-Glo^TM assay (Promega) described previously. Ligand-bound (10 μM ligand incubated for one hour at room temperature) or apo CB1R (1 μM) was mixed with G protein (1 μM) in 20 mM HEPES, pH 7.5, 50 mM NaCl, 0.01% L-MNG/0.001% CHS, 100 μM TCEP, 10 μM GDP and 10 μM GTP and incubated at room temperature. GTPase-Glo-reagent was added to the sample after incubation for 60 min (Gi1-3) and 20 min for (Go). Luminescence was measured after the addition of detection reagent and incubation for 10 min at room temperature using a SpectraMax Paradigm plate reader.
# [2] = pH 7.4, kinetic, 2% DMSO, 25 °C
# in vitro [3] = conditions: mouse, microsomes, pH 7.4
# [4] = for Stability time course, Mean (FS10f): relative to 100 at 0 min
# in vitro [5] = conditions: mouse, pH 7.4
# [6] = mouse plasma, 1.0 µM
# T1 sequence (P21554 whole entry): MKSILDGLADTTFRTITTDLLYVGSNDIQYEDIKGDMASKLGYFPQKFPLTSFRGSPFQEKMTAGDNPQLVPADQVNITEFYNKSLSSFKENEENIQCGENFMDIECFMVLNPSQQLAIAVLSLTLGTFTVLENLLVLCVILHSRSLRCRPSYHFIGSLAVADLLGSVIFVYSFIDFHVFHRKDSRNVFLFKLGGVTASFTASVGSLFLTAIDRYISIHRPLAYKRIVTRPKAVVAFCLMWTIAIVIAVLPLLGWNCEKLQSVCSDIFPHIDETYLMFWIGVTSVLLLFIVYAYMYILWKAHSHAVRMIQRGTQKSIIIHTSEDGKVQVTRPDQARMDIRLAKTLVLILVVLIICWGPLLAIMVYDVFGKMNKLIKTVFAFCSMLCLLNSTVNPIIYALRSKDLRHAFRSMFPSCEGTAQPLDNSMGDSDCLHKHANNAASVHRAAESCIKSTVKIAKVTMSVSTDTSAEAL
smiles,measurement,setting,value
C[C@H]1O[C@@H](O[C@H]2[C@@H](O)C[C@H](O[C@H]3[C@@H](O)C[C@H](O[C@H]4CC[C@@]5(C)[C@H](CC[C@@H]6[C@@H]5C[C@@H](O)[C@]5(C)[C@@H](C7=CC(=O)OC7)CC[C@]65O)C4)O[C@@H]3C)O[C@@H]2C)C[C@H](O)[C@@H]1O [Digoxin],"efflux ratio at 90 min, 10 μM",P-gp (human MDR1),7.3
"COC(=O)[C@@H](NC(=O)c1nn(Cc2ccc(F)cc2)c2ccccc12)C(C)(C)C [MDMB-Fub, MDMB-Fubinaca, reference compound]",bimane spectrum λmax,CB1R,465 nm
same,"GTP turnover, normalised (FUB about 100)",[1]; Gi2,98.933 and 99.3172 and 100.642 and 101.735 and 100.511 and 98.862
same,"GTP turnover, normalised (FUB about 100)",[1]; Gi3,98.4729 and 99.2586 and 100.386 and 101.71 and 99.9413 and 100.231
same,"GTP turnover, normalised (FUB about 100)",[1]; Goa,94.5882 and 101.149 and 98.4211 and 105.861 and 100.202 and 99.77
same,"GTP turnover, normalised (FUB about 100)","[1]; first block, G protein not printed (Gi2, Gi3, Goa follow)",100.725 and 100.983 and 100.099 and 103.208 and 97.7953 and 97.1894
Cc1nccn1CC1CCc2c(c3ccccc3n2C)C1=O (stereo not shown) [Ondansetron],"PBS solubility, Mean",[2],120 µM
CC(C)NCC(O)COc1cccc2ccccc12 (stereo not shown) [Propranolol],"remaining at 40 min, 2 µM",in vitro [3],106%
same,"Stability time course, Mean (FS10f)",[4]; Time 0 min,100
same,"Stability time course, Mean (FS10f)",[4]; Time 7 min,46.9307
same,"Stability time course, Mean (FS10f)",[4]; Time 15 min,32.0792
same,"Stability time course, Mean (FS10f)",[4]; Time 25 min,24.5545
same,"Stability time course, Mean (FS10f)",[4]; Time 40 min,16.6997
same,Mean % Remaining,"[4]; mouse microsomes, 15 min",32%
"COc1ccc(CCN(C)CCCC(C#N)(c2ccc(OC)c(OC)c2)C(C)C)cc1OC (stereo not shown) [Verapamil, reference compound]","recovery at 5 h, 1 μM",in vitro [5],91%
same,Mean % of bound compound,[6],88%
